{
  "source": "patent US20230084927A1",
  "about": "“GLUCOSE UPTAKE INHIBITORS AND USES THEREOF” (METABOMED LTD., priority 2019, published 2023)",
  "key": {"[1]": {"system": "SDH-KO-HRAS cells (SDHB-deficient)", "experiment": "Cellular / differential toxicity assay (CellTiter-Glo, 3 days)", "format": "cell-based, murine", "settings": "for EC50: Mus musculus, 72 h", "in_short": "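Isogenic SDHB-deficient (HRAS-transformed SDH-KO) and SDH-WT cells grown in DMEM-F12 with 1 mM glutamine and 3% FBS, plated with compound (10-point dilution from 10 uM to 0.0065 uM or lower) for 3 days at 37 °C, 5% CO2. Viability by CellTiter-Glo luminescence; EC50 calculated.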"}, "[2]": {"system": "KG1 (Acute Myelogenous Leukemia)", "experiment": "Toxicity assay with or without rotenone", "format": "cell-based", "settings": "72 hours", "method": "(§1) Toxicity assay: Cells were growing in 96 well plates in DMEM F12 with 17 mM glucose, 0.5 mM Sodium Pyruvate, 1 mM Glutamine and 3% FBS. The cells were treated with the indicated compounds (10 different concentrations) with or without 25 nM rotenone. Viability was determined after 72 hours of treatment using CellTiter Glo reagent (Promega). EC50 was calculated using Prism software."}, "OV-90 (Ovarian cancer)": {"system": "OV-90 (Ovarian cancer)", "experiment": "Toxicity assay with or without rotenone", "format": "cell-based", "settings": "Homo sapiens, 72 hours", "method": "as §1"}, "[3]": {"system": "SDH-KO, Murine HRAS-transformed, SDHB-deficient cells", "experiment": "Toxicity assay with or without rotenone", "format": "cell-based", "settings": "Mus musculus, 72 hours", "method": "as §1"}, "[4]": {"system": "SDH-WT, Murine HRAS-transformed cells", "experiment": "Toxicity assay with or without rotenone", "format": "cell-based", "settings": "Mus musculus, 72 hours", "method": "as §1"}, "[5]": {"system": "THP1 (Acute Monocytic Leukemia)", "experiment": "Toxicity assay with or without rotenone", "format": "cell-based", "settings": "Homo sapiens, THP-1, 72 hours", "method": "as §1"}, "[6]": {"settings": "with 25 nM rotenone, read-out: EC50 (nM) with Rotenone"}, "[7]": {"settings": "without rotenone, read-out: EC50"}},
  "note": "Like-named read-outs stand apart in the source and are kept apart here.",
  "data": [
    {"compound": "CC1(C)Cc2nc3sc4c(NCCc5ccc6[nH]cnc6c5)ncnc4c3cc2CO1", "note": "[Compound 145]", "values": [
      {"measurement": "Ratio BAY-876/COMP 145", "setting": "[1]; Murine SDH-KO", "value": 0.8},
      {"measurement": "EC50", "setting": "[1]; Murine SDH-KO, transformed, 72 hours, Example 8, read-out: EC50", "value": 0.0012, "unit": "µM"},
      {"measurement": "EC50", "setting": "[1]; SDH-KO cells, 72 hours, Example 7, read-out: EC50 Tox", "value": 0.0018, "unit": "µM"},
      {"measurement": "EC50", "setting": "[1]; toxicity, SDH-KO cells, 3 days, CellTiter-Glo, read-out: EC50 (uM) SDH-KO-HTAS-C17", "value": "< 1", "unit": "µM"},
      {"measurement": "differential effect between SDH-WT and KO cells (EC50 Tox)", "setting": "[1]; cell viability, Example 7", "value": "around 80 folds"},
      {"measurement": "EC50", "setting": "[2]; KG1, with 25 nM rotenone, read-out: EC50 (nM) with Rotenone", "value": 16, "unit": "nM"},
      {"measurement": "EC50", "setting": "[2]; KG1, without rotenone, read-out: EC50", "value": 3200, "unit": "nM"},
      {"measurement": "EC50", "setting": "OV-90 (Ovarian cancer); OV-90, with 25 nM rotenone, read-out: EC50 (nM) with Rotenone", "value": 15, "unit": "nM"},
      {"measurement": "EC50", "setting": "OV-90 (Ovarian cancer); OV-90, without rotenone, read-out: EC50", "value": 825, "unit": "nM"},
      {"measurement": "EC50", "setting": "[3]; [6]", "value": 3, "unit": "nM"},
      {"measurement": "EC50", "setting": "[3]; [7]", "value": 3, "unit": "nM"},
      {"measurement": "EC50", "setting": "[4]; [6]", "value": 3, "unit": "nM"},
      {"measurement": "EC50", "setting": "[4]; [7]", "value": 210, "unit": "nM"},
      {"measurement": "EC50", "setting": "[5]; THP1, with 25 nM rotenone, read-out: EC50 (nM) with Rotenone", "value": 16, "unit": "nM"},
      {"measurement": "EC50", "setting": "[5]; THP1, without rotenone, read-out: EC50", "value": 1100, "unit": "nM"}
    ]}
  ]
}
